What was measured:
Type in all cases: biochemical
Wild-type cruzipain = Wild-type cruzipain (Trypanosoma cruzi, UniProt P25779); test: Trypanosoma cruzi cruzipain peptidase activity assay (Ki); conditions: read-out: Ki, inhibitors of cruzain and cruzipains
Method in brief: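 Native cruzipain from T. cruzi Dm28 epimastigotes, 2.5 nM, in 100 mM sodium phosphate pH 6.75 with 1 mM EDTA and 10 mM L-cysteine, 25 °C, DMSO <1%. Rates taken from continuous fluorogenic substrate read; Ki by regression assuming reversible pure-competitive inhibition.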

Bovine cathepsin S = target: T1, Bovine cathepsin S (Bos taurus, UniProt P25326); test: Cathepsin S peptidase activity assay, bovine enzyme (Ki); conditions: species of cathepsin S not given; read-out: Ki, inhibitors of cathepsin S
T1 construct: purchased CN Biosciences
T1 sequence (P25326 115-331): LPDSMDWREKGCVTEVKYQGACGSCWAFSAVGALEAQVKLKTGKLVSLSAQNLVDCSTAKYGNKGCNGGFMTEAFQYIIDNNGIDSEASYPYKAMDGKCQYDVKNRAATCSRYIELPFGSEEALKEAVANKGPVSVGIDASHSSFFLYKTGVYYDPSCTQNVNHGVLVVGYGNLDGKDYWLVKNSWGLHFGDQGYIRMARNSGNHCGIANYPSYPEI
Description: Unless otherwise stated, all general chemicals and biochemicals were purchased from either the Sigma Chemical Company, Poole, Dorset, U.K or from Fisher Scientific UK, Loughborough, Leicestershire, U.K. Absorbance assays were carried out in flat-bottomed 96-well plates (Spectra; Greiner Bio-One Ltd., Stonehouse, Gloucestershire, U.K.) using a SpectraMax PLUS384 plate reader (Molecular Devices, Crawley, U.K.). Fluorescence high throughput assays were carried out in either 384-well microtitre plates (Corning Costar 3705 plates, Fisher Scientific) or 96-well ‘U’ bottomed Microfluor W1 microtitre plates (Thermo Labsystems, Ashford, Middlesex, U.K.). Fluorescence assays were monitored using a SpectraMax Gemini fluorescence plate reader (Molecular Devices). For substrates employing either a 7-amino-4-methylcoumarin (AMC) or a 7-amino-4-trifluoromethylcoumarin (AFC) fluorophore, assays were monitored at an excitation wavelength of 365 nm and an emission wavelength of 450 nm and the fluorescence plate reader calibrated with AMC. For substrates employing a 3-amino-benzoyl (Abz) fluorophore, assays were monitored at an excitation wavelength of 310 nm and an emission wavelength of 445 nm; the fluorescence plate reader calibrated with 3-amino-benzamide (Fluka). Unless otherwise indicated, all the peptidase substrates were purchased from Bachem UK, St Helens, Merseyside, UK. Substrates utilizing fluorescence resonance energy transfer methodology (i.e. FRET-based substrates) were synthesized at Incenta Limited using published methods (Atherton & Sheppard, Solid Phase Peptide Synthesis, IRL Press, Oxford, U.K, 1989) and employed Abz (2-aminobenzoyl) as the fluorescence donor and 3-nitro-tyrosine [Tyr(NO2)] as the fluorescence quencher (Meldal, M. and Breddam, K., Anal. Biochem, 195, 141-147, 1991). Hydroxyethylpiperazine ethanesulfonate (HEPES), tris-hydroxylmethyl aminomethane (tris) base, bis-tris-propane and all the biological detergents (e.g. CHAPS, zwittergents, etc.) were purchased from CN Biosciences UK, Beeston, Nottinghamshire, U.K. Glycerol was purchased from Amersham Pharmacia Biotech, Little Chalfont, Buckinghamshire, U.K. Stock solutions of substrate or inhibitor were made up to 10 mM in 100% dimethylsulfoxide (DMSO) (Rathburns, Glasgow, U.K.) and diluted as appropriately required. In all cases the DMSO concentration in the assays was maintained at less than 1% (vol./vol.).
Assay protocols were based on literature precedent (Table 4; Barrett, A. J., Rawlings, N. D. and Woessner, J. F., 1998, Handbook of Proteolytic Enzymes, Academic Press, London and references therein) and modified as required to suit local assay protocols. Enzyme was added as required to initiate the reaction and the activity, as judged by the change in fluorescence upon conversion of substrate to product, was monitored over time. All assays were carried out at 25±1° C.
Bovine cathepsin S, human cathepsin L, human cathepsin H and human cathepsin B were obtained from CN Biosciences. Recombinant human cathepsin S, human cathepsin K and human cathepsin X were obtained from Dr. Boris Turk (Josef Stefan Institute, Ljubljana, Slovenia). Unless otherwise stated, all peptidase activity assays were carried out in 10 mM bis-tris-propane (BTP), pH 6.5 containing 1 mM EDTA, 5 mM 2-mercaptoethanol and 1 mM CaCl2. Human cathepsin H activity assays were carried out in 10 mM BTP pH 6.5, 142 mM NaCl2, 1 mM CaCl2, 1 mM EDTA, 1 mM DTT, 0.035 mM Zwittergent 3-16. Human cathepsin K assays were carried out in 100 mM sodium acetate; pH 5.5 containing 20 mM L-cysteine and 1 mM EDTA (Bossard, M. J., et. al., J. Biol. Chem., 21, 12517-12524, 1996). Human cathepsin X assays were carried out in 100 mM sodium acetate; pH 5.5 containing 20 mM L-cysteine; 0.05% (w/v) Brij 35 and 1 mM EDTA (Santamaria, I., et. al., J. Biol. Chem., 273, 16816-16823, 1998; Klemencic, J, et al., Eur. J. Biochem., 267, 5404-5412, 2000).

human cathepsin L = target: T2, human cathepsin L (Homo sapiens, UniProt P07711); test: Cathepsin L peptidase activity assay (Ki); conditions: read-out: Ki, inhibitors of cathepsin L
T2 construct: purchased CN Biosciences
T2 sequence (P07711 114-333): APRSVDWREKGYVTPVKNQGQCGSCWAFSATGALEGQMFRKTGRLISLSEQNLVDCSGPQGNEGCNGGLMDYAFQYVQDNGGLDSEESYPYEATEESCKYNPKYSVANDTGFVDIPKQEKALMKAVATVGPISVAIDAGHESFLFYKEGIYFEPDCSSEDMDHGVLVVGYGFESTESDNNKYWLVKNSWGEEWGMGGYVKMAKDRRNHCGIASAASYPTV
Method in brief: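 Run at 25±1° C with DMSO under 1%: buffer was 10 mM BTP pH 6.5 containing 1 mM EDTA, 1 mM CaCl2 and 5 mM 2-mercaptoethanol. Enzyme (1 nM cathepsin L) was added last to start hydrolysis of Ac-Phe-Arg-AMC held at KM^app (~20 μM), followed kinetically by fluorescence at 365/450 nm.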

CPB2.8ΔCTE = target: T3, CPB2.8ΔCTE (Leishmania mexicana, UniProt P36400); test: Leishmania mexicana cysteine protease B (CPB) peptidase activity assay (Ki); conditions: Ki, inhibitors of Leismania mexicana CPB protease
T3 construct: Wild-type recombinant CPB without the C-terminal extention (i.e. CPB2.8ΔCTE); Dr. Jeremy Mottram (Wellcome Centre for Molecular Parasitology, University of Glasgow)
T3 sequence (P36400 126-343, stated change not applied): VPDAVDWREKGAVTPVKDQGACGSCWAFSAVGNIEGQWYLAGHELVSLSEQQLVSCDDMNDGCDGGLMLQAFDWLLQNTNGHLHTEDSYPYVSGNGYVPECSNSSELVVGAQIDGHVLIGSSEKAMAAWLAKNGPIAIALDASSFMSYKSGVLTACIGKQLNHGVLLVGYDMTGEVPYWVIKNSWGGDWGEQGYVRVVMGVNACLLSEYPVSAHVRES
Method in brief: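 Apparent Ki was derived by regression of activity against inhibitor concentration, assuming pure-competitive reversible binding. Reaction: 0.25 nM CPB lacking the C-terminal extension, pH 5.5 acetate buffer (1 mM EDTA, 200 mM NaCl, 10 mM DTT), 25 °C, followed by continuous substrate fluorescence.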

Measured: Ki

Wild-type cruzipain, sequence (P25779 whole entry): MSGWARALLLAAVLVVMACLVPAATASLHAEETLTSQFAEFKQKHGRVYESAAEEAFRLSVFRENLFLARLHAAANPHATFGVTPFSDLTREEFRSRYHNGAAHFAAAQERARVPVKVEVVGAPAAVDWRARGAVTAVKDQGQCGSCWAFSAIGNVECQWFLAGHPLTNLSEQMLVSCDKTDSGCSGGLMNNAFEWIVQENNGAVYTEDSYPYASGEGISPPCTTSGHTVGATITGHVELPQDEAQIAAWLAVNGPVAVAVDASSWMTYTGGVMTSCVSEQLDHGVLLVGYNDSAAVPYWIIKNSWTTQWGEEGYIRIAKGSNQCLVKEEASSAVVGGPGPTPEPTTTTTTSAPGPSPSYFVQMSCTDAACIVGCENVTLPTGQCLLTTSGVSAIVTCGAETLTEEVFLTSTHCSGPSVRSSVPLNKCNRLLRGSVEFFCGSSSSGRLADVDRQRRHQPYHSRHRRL

CC[C@H](NC(=O)OCc1ccccc1)C(=O)N1CC(=O)[C@@H]2[C@H]1CCN2C(=O)[C@H](CC(C)C)NC(=O)c1ccc(N(C)C)cc1 [Example 159, (3aS,6aR)-((1S)-1-{4-[(2S)-2-(4-Dimethylamino-benzoylamino)-4-methyl-pentanoyl]-3-oxo-hexahydro-pyrrolo[3,2-b]pyrrole-1-carbonyl}-propyl)-carbamic acid benzyl ester]
< 5 µM: all assays above

CCC[C@H](NC(C)=O)C(=O)N1CC(=O)[C@@H]2[C@H]1CCN2C(=O)[C@H](CC(C)C)NC(=O)c1ccc(N(C)C)cc1 [Example 245, (3aR,6aS)-N-{(1S)-1-[4-((2S)-2-Acetylamino-pentanoyl)-6-oxo-hexahydro-pyrrolo[3,2-b]pyrrole-1-carbonyl]-3-methyl-butyl}-4-dimethylamino-benzamide]
< 5 µM: all assays above

CC[C@H](C)[C@H](NC(=O)OCc1ccccc1)C(=O)N1CC(=O)[C@@H]2[C@H]1CCN2C(=O)[C@H](CC(C)C)NC(=O)c1ccc(N(C)C)cc1 [Example 161, (3 aS,6aR)-((1S,2S)-1-{4-[(2S)-2-(4-Dimethylamino-benzoylamino)-4-methyl-pentanoyl]-3-oxo-hexahydro-pyrrolo[3,2-b]pyrrole-1-carbonyl}-2-methyl-butyl)-carbamic acid benzyl ester]
< 5 µM: all assays above

CC(C)C[C@H](NC(=O)c1ccc(N(C)C)cc1)C(=O)N1CC[C@@H]2[C@H]1C(=O)CN2C(=O)[C@H](C)NC(=O)OCc1ccccc1 [Example 145, (3aS,6aR)-((1S)-2-{4-[(2S)-2-(4-Dimethylamino-benzoylamino)-4-methyl-pentanoyl]-3-oxo-hexahydro-pyrrolo[3,2-b]pyrrole-1-yl}-1-methyl-2-oxo-ethyl)-carbamic acid benzyl ester]
< 5 µM: all assays above

COc1cccc(C(=O)N2CC(=O)[C@@H]3[C@H]2CCN3C(=O)[C@H](CC(C)C)NC(=O)c2ccc(N(C)C)cc2)c1 [Example 65, (3aR,6aS)-4-Dimethylamino-N-{(1S)-1-[4-(3-methoxy-benzoyl)-6-oxo-hexahydro-pyrrolo[3,2-b]pyrrole-1-carbonyl]-3-methyl-butyl}-benzamide]
< 5 µM: all assays above

CC(C)C[C@H](NC(=O)c1cccc(CN)c1)C(=O)N1CC[C@@H]2[C@H]1C(=O)CN2C(=O)c1ccccc1S(C)(=O)=O [Example 185, (3aR,6aS)-3-Aminomethyl-N-{(1S)-1-[4-(2-methanesulfonyl-benzoyl)-6-oxo-hexahydro-pyrrolo[3,2-b]pyrrole-1-carbonyl]-3-methyl-butyl}-benzamide]
< 5 µM: all assays above

CC(C)C[C@H](NC(=O)c1ccc2ncccc2c1)C(=O)N1CC[C@@H]2[C@H]1C(=O)CN2C(=O)c1ccccc1 [Example 86, (3aR,6aS)-Quinoline-6-carboxylic acid [(1S)-1-(4-benzoyl-6-oxo-hexahydro-pyrrolo[3,2-b]pyrrole-1-carbonyl)-3-methyl-butyl]-amide]
< 5 µM: all assays above

From patent publication US20060100431A1, “Biologically active compounds” (Amura Therapeutics Limited, priority 2002, published 2006)
